The test system of assay [1] is Fusarium graminearum (FGR; isolate 73B ISU). In kind it is cell-based. The following applies: for IC50 (ppm) High Salt Fgr: high salt: 1/2x liquid media plus 1 mM calcium chloride, 50 mM potassium chloride; for IC50 (ppm) Low Salt Fgr: low salt: 1/8x potato dextrose broth plus 0.25 mM calcium chloride, 12.5 mM potassium chloride.
The subject of assay [2] is Fusarium verticillioides (FVE). In kind it is cell-based.
The test system of assay [3] is Colletotrichum graminicola (CGR; isolate Carroll-IA-99). In kind it is cell-based. The following applies: for Antifungal activity (IC50 in ppm) against C. graminicola under high salt conditions: Table 2; for IC50 (ppm) High Salt Cgr: high salt: 1/2x liquid media plus 1 mM calcium chloride, 50 mM potassium chloride, Table 1; for IC50 (ppm) Low Salt Cgr: low salt: 1/8x Czapek-Dox broth plus 0.25 mM calcium chloride, 12.5 mM potassium chloride.

Another assay has as its system Diplodia maydis (DMA). In kind it is cell-based. The following applies: for IC50 (ppm) High Salt Dma: high salt: 1/2x liquid media plus 1 mM calcium chloride, 50 mM potassium chloride; for IC50 (ppm) Low Salt Dma: low salt: 1/8x potato dextrose broth plus 0.25 mM calcium chloride, 12.5 mM potassium chloride.
Another assay relates to C. graminicola. The assay is described as follows: Invasion of leaf sheaths of transgenic maize by C. graminicola. The assay is classed as in vivo, Colletotrichum graminicola. The following applies: greenhouse, T0 V5-stage maize. As for the experimental part: The leaf sheaths of leaf 4 or 5 of T0 plants at the V5 stage were inoculated with 50 μL of 5×10^6 spores/mL after wounding the leaf sheath on both sides of the midrib about half way between edge and midrib with a small screwdriver. The leaf sheath was covered with plastic wrap for 5 days. Nine days after inoculation the area of lesions was measured.

Some results are limits rather than exact numbers.

As to “Pp-PDF1-1C-7A4: Pp-PDF1 variant from first shuffling round (RVCEKPSKFFKGLCGSDRDCTNACRKEGLATGECQSKGFFNSVCVCKKPC; Synthetic sequence obtained from DNA shuffling of a plant sequence.)”, in assay [1], the “IC50 (ppm) High Salt Fgr” value is 20 ppm and the “IC50 (ppm) Low Salt Fgr” value stood at 4.7 ppm. Moreover, the “IC50 (ppm) High Salt Fve” value in assay [2] is reported as greater than 200 ppm. In assay [3], the “Antifungal activity (IC50 in ppm) against C. graminicola under high salt conditions” value (“Antifungal activity (IC50 in ppm)” for short) worked out at 5 ppm, the “IC50 (ppm) High Salt Cgr” value is listed as 5 ppm and the “IC50 (ppm) Low Salt Cgr” value worked out at 0.1 ppm. The “IC50 (ppm) High Salt Dma” value with Diplodia maydis (DMA) stood at 50 ppm. Moreover, the “relation of protein level to disease development” value with C. graminicola (leaf sheath invasion by CGR) is “correlated inversely with disease development”. Further, the “invasion of leaf sheaths by CGR compared to empty vector controls” value in the assay with C. graminicola (protein accumulated in endoplasmic reticulum, two transformation constructs) is “significantly improved events”.
As to “Pp-PDF1 (4B11): Pp-PDF1 variant identified by DNA shuffling (RVCTKPSKFFKGMCVSDNNCTHACRKEGLPTGFCQSKGFFNSVCVCKKPC; Synthetic sequence obtained from DNA shuffling of a plant sequence.)”, the “IC50 (ppm) High Salt Fgr” value in assay [1] is given as greater than 200 ppm. Besides, in assay [2], the “IC50 (ppm) High Salt Fve” value is reported as greater than 200 ppm. In assay [3], the “Antifungal activity (IC50 in ppm)” value worked out at 1 ppm and the “IC50 (ppm) High Salt Cgr” value came out at 0.8 ppm. In the assay with Diplodia maydis (DMA), the “IC50 (ppm) High Salt Dma” value was 12.5 ppm.
As to “Pp-PDF1-1C-7C4: Pp-PDF1 variant from first shuffling round (RVCTKPSKFFKGMCVSDNDCTHACRKEGLATGFCQSKGFFNSVCVCTKPC; Synthetic sequence obtained from DNA shuffling of a plant sequence.)”, in assay [1], the “IC50 (ppm) High Salt Fgr” value was 20 ppm and the “IC50 (ppm) Low Salt Fgr” value was 4.7 ppm. Besides, the “IC50 (ppm) High Salt Fve” value in assay [2] was greater than 200 ppm. Further, in assay [3], the “Antifungal activity (IC50 in ppm)” value is given as 5 ppm, the “IC50 (ppm) High Salt Cgr” value was 3 ppm and the “IC50 (ppm) Low Salt Cgr” value came to 0.14 ppm. In the assay on Diplodia maydis (DMA), the “IC50 (ppm) High Salt Dma” value is 25 ppm.
Turning to “PP-PDF1-2CF-2D8: Pp-PDF1 variant from second shuffling round (RVCTKPSKFYKGLCVSDRDCTNACRKEGLPTGFCQSKGFFNSVCVCKKPC; Synthetic sequence obtained from DNA shuffling of a plant sequence.)”, in assay [1], the “IC50 (ppm) High Salt Fgr” value turned out to be 100 ppm and the “IC50 (ppm) Low Salt Fgr” value is 15 ppm. Besides, in assay [2], the “IC50 (ppm) High Salt Fve” value is given as 200 ppm and the “IC50 (ppm) Low Salt Fve” value is given as 30 ppm. Besides, in assay [3], the “IC50 (ppm) High Salt Cgr” value was 0.6 ppm and the “IC50 (ppm) Low Salt Cgr” value is 0.3 ppm. In addition, in the assay with Diplodia maydis (DMA), the “IC50 (ppm) High Salt Dma” value is reported as 50 ppm and the “IC50 (ppm) Low Salt Dma” value was 15 ppm.
As for “Pp-PDF1-3CA-1A7: Pp-PDF1 variant from third shuffling round (RVCTKPSKFFRGLCVSDRDCTNACRKEGLPIGFCQSKGFFNSVCVCKKPC; Synthetic sequence obtained from DNA shuffling of a plant sequence.)”, in assay [1], the “IC50 (ppm) High Salt Fgr” value was “^~100 ppm” and the “IC50 (ppm) Low Salt Fgr” value is given as 15 ppm. Further, in assay [2], the “IC50 (ppm) High Salt Fve” value was 200 ppm and the “IC50 (ppm) Low Salt Fve” value came out at 30 ppm. Moreover, in assay [3], the “IC50 (ppm) High Salt Cgr” value was 0.6 ppm and the “IC50 (ppm) Low Salt Cgr” value is 0.8 ppm. In addition, in the assay with Diplodia maydis (DMA), the “IC50 (ppm) High Salt Dma” value was determined as 25 ppm and the “IC50 (ppm) Low Salt Dma” value is recorded as 10 ppm.
Consider “Pp-PDF1-3CA-1B2: Pp-PDF1 variant from third shuffling round (RVCTKPSKFYRGLCVSDRDCTHACRKEGLPIGECKSKGFFNSVCVCKKPC; Synthetic sequence obtained from DNA shuffling of a plant sequence.)”, for which, in assay [1], the “IC50 (ppm) High Salt Fgr” value is listed as “^~100 ppm” and the “IC50 (ppm) Low Salt Fgr” value was 15 ppm. In assay [2], the “IC50 (ppm) High Salt Fve” value is 200 ppm and the “IC50 (ppm) Low Salt Fve” value was 30 ppm. For the same substance, in assay [3], the “IC50 (ppm) High Salt Cgr” value is 0.8 ppm and the “IC50 (ppm) Low Salt Cgr” value was 2 ppm. In addition, in the assay on Diplodia maydis (DMA), the “IC50 (ppm) High Salt Dma” value amounted to 50 ppm and the “IC50 (ppm) Low Salt Dma” value came to 15 ppm.
Consider “Pp-PDF1-4CB-12G9: Pp-PDF1 variant from fourth shuffling round (RVCTKPSKFFRGLCVSDRQCTNACRKEGLPIGECQSKGFFNSVCVCRKPC; Synthetic sequence obtained from DNA shuffling of a plant sequence.)”, for which the “IC50 (ppm) High Salt Fgr” value in assay [1] is reported as 50 ppm. In assay [2], the “IC50 (ppm) High Salt Fve” value is listed as greater than 200 ppm. Moreover, in assay [3], the “IC50 (ppm) High Salt Cgr” value is given as 0.25 ppm and the “IC50 (ppm) Low Salt Cgr” value was found to be 0.25 ppm. For the same substance, the “IC50 (ppm) High Salt Dma” value in the assay with Diplodia maydis (DMA) is 25 ppm.
For the substance “Pp-PDF1-3CA-1A2: Pp-PDF1 variant from third shuffling round (RVCTKPSKFYRGLCVSDRDCTHACRKEGLPTGFCQSKGFFNSVCVCKKPC; Synthetic sequence obtained from DNA shuffling of a plant sequence.)”, in assay [1], the “IC50 (ppm) High Salt Fgr” value is “^~100 ppm” and the “IC50 (ppm) Low Salt Fgr” value came to 15 ppm. Moreover, in assay [2], the “IC50 (ppm) High Salt Fve” value was found to be 200 ppm and the “IC50 (ppm) Low Salt Fve” value worked out at 30 ppm. Also, in assay [3], the “IC50 (ppm) High Salt Cgr” value turned out to be 0.6 ppm and the “IC50 (ppm) Low Salt Cgr” value is given as 3 ppm. In addition, in the assay on Diplodia maydis (DMA), the “IC50 (ppm) High Salt Dma” value is recorded as 50 ppm and the “IC50 (ppm) Low Salt Dma” value was 15 ppm.

For the origin of these results see patent US8865967B2 (priority 2010, dated 2014).
